Results: US9975853B2, “Tetrahydroisoquinolinone derivatives and their use in the inhibition of the HSP70 protein” (Julius-Maximilians-Universitaet Wuerzburg, priority 2014, dated 2018)
Entries after “also recorded” stand apart in the source; their conditions may differ.

Legend:
HSP90 = assay: Western blot analysis of HSP90 expression in INA-6 cells; assay type: cell-based, human; details: INA-6, 0.6 μM, with Z-VAD-FMK 50 μM
Experimental: Western Blot Analysis. Protein expression levels were determined with Western blotting procedures (M. Chatterjee, et al., Blood 2002, 100, 3311-3318). Following separation by SDS-PAGE, proteins were transferred onto nitrocellulose membranes (Schleicher & Schuell, Dassel, Germany) and stained with antibodies against Hsp72, Hsp73, Hsp90 (all from Enzo Life Science, Lörrach, Germany), AIF, lamin A, caspases 9 and 3, PARP (all from Santa Cruz, Heidelberg, Germany). An anti-α tubulin antibody (Sigma, Deisenhofen, Germany) was employed to assess equal loading. Secondary antibodies used were anti-rat (Enzo Life Science), anti-rabbit and anti-mouse (both from GE Healthcare, Little Chalfont, UK). […] The heat shock proteins HSP72 and HSP73 critically interact with HSP90 in order to mediate an essential chaperone function for a multitude of proteins including various signaling intermediates. According to an established HSP72/73-dependent client protein signature and its role for survival in MM, the proposed anti-HSP72/73 effect of trans-7b in the INA-6 multiple myeloma (MM) cell line model was evaluated. […] Lysates were cleared by centrifugation, measured by quantitative protein assay (Bio-Rad, München, Germany) and subjected to SDS gel electrophoresis. […]

caspases 9 and 3 = assay: Apoptosis assay: cleavage and activation of caspases 9 and 3, PARP cleavage in INA-6 cells (Western blot); assay type: cell-based, human; details: INA-6, 0.6 μM, 24 hours
Experimental: Apoptosis Assays. Hsp70-dependent prevention of apoptosis was investigated by analyses of the apoptosis-inducing factors (AIF) and of the caspases 9 and 3 in INA-6 cells. INA-6 cells were treated with 0.6 μM of compound trans-7b for 8 hours prior to analyze nuclear translocation of AIF. Staining of the nuclear protein lamin A was used as a loading control. […] Analysis of cleavage of the bona fide caspase substrate PARP served as a control for caspase activation. Co-treatment with the pan-caspase inhibitor Z-VAD-FMK (50 μM) was employed as another specificity control.
In FIG. 2A Western blot analyses of caspases 9 and 3, and the caspase substrate PARP (upper panel), and viability analyses (lower panel) of INA-6 MM cells upon treatment with trans-7b for 24 hours are shown. […] Lysates were cleared by centrifugation, measured by quantitative protein assay (Bio-Rad, München, Germany) and subjected to SDS gel electrophoresis. […] INA-6 cells were washed in PBS, incubated for 15 minutes in 100 ml binding buffer (10 mM HEPES/NaOH, pH 7.4, 140 mM NaCl, 2.5 mM CaCl2) containing 2.5 mL annexin V-FITC mix and 1 mg/ml PI and analyzed by flow cytometry (FACSCalibur/CELLQuest; Becton Dickinson, Heidelberg, Germany). […] Raw data of three independent experiments have been calculated to establish means, standard deviation and dose-effect curves of trans-7b.

COc1ccc(C2C(C(=O)Nc3cccc(C)n3)c3ccccc3C(=O)N2c2ccccc2)cc1 (stereo not drawn) [trans-7b, trans-3-(4-Methoxyphenyl)-N-(6-methylpyridin-2-yl)-1-oxo-2-phenyl-1,2,3,4-tetrahydroisoquinoline-4-carboxamide]
HSP90 expression (HSP90): remains unchanged
caspase 9 and 3 cleavage/activation (PARP cleavage) (caspases 9 and 3): activation of the caspases 9 and 3; also recorded: sequential caspase 9 and 3 cleavage leading to their activation
